Data on one compound can be found in patent publication US12295962B2, “Polymorphic compounds and uses thereof” (AskAt Inc., priority 2018, dated 2025).

Assay type in all cases: in vivo, BALB/c mice
The test system of test [1] is 4T1 mouse breast cancer. Kind of test: Anti-tumor activity in the 4T1 model, additional experiment (with anti-PD1, 7 mice per cohort). Particulars: during the period of dosing; Compound B 15 mg/kg BID; compared with vehicle group and anti-PD1 dosed alone; FIG. 27. Here is the method:
The antitumor activity of Compound B as a single agent and combined with a mouse anti-PD1 antibody was evaluated in the 4T1 mouse breast cancer model grown in BALB/c mice in an additional experiment. Mice were inoculated subcutaneously in the right flank with 3×10^5 tumor cells. When tumors reached an average size of 97 mm^3 dosing was initiated. The dosing regimens in the 4 separate cohorts comprising 7 mice each are as follows: […]

For test [2], the system named is 4T1 mouse breast cancer. Kind of test: Anti-tumor activity in the 4T1 breast cancer mouse model (with anti-CTLA4). Here is the method:
The antitumor activity of Compound B (as described in example 14 above) as a single agent and combined with a mouse anti-CTLA4 antibody was evaluated in the 4T1 mouse breast cancer model grown in BALB/c mice. Mice were inoculated subcutaneously in the right flank with 3×10^5 tumor cells. When tumors reached an average size of 100 mm^3 (7 days after tumor cell inoculation) dosing was initiated.

Test [3] has as its system CT-26 mouse colon adenocarcinoma. Kind of test: Anti-tumor activity in the CT-26 model, additional experiment (with anti-PD1, 7 mice per cohort). Particulars: during the period of dosing; single agents (Compound B 15 mg/kg BID p.o.; anti-PD1 10 mg/kg BIW i.p.); compared with vehicle group; FIG. 26. Here is the method:
The antitumor activity of Compound B as a single agent and combined with a mouse anti-PD1 antibody was evaluated in the CT-26 mouse colon adenocarcinoma model grown in BALB/c mice in an additional experiment. Mice were inoculated subcutaneously in the right flank with 5×10^5 tumor cells. When tumors reached an average size of 91 mm^3 dosing was initiated. The dosing regimens in the 4 separate cohorts comprising 7 mice each are as follows: […]

Test [4] concerns immune cells of CT-26 tumors. Kind of test: Immune cell composition of CT-26 tumors by multi-color flow cytometry. The following applies: after 7 days dosing, Compound B 15 mg/kg BID p.o., anti-PD1 10 mg/kg Q3D i.p., vs vehicle. On the procedure: The immune cell composition of Compound B (as described in example 14 above) as a single agent and combined with a mouse anti-PD1 antibody was evaluated in the CT-26 mouse colon adenocarcinoma model grown in BALB/c mice. Mice were inoculated subcutaneously in the right flank with 5×10^5 tumor cells. When tumors reached an average size of 85 mm^3 dosing was initiated. The dosing regimens in the 4 separate cohorts comprising 10 mice each are listed as follows:
After dosing animals for 7 days, tumors were resected and used to prepare single cell suspensions. Live cells representing tumor and immune cells were stained with cocktails of antibodies targeting multiple immune cell markers (anti-CD45, anti-CD3, anti-CD4, anti-CD8, anti-CD25, anti-FoxP3, anti-PD-1, anti-CD11c) conjugated to different fluorescent tags. The stained cells were fixed in 4% paraformaldehyde and quantified using a multi-color flow cytometer (Fortessa). The data was analyzed with FloJo software.
Background: Flow cytometry measures light scatter and fluorescence of single cells or particles in a stream.

In test [5] the test system is CT-26 mouse colon adenocarcinoma. Kind of test: Anti-tumor activity in the CT-26 colon adenocarcinoma mouse model (with anti-PD-1, 10 mice per cohort). Particulars: for tumor growth kinetics: during the period of dosing, compared with vehicle treated mice, FIG. 22. On the procedure:
The antitumor activity of Compound B as a single agent and combined with a mouse anti-PD-1 antibody was evaluated in the CT-26 mouse colon adenocarcinoma model grown in BALB/c mice. Mice were inoculated subcutaneously in the right flank with 5×10^5 tumor cells.
When tumors reached an average size of 71 mm^3 (6 days after tumor cell inoculation) dosing was initiated. The dosing regimens in the 8 separate cohorts comprising 10 mice each are as follows: […]

The mark [6] stands for this setting: 99 days after tumor inoculation, 10 mice per cohort.

`C[C@H](NC(=O)c1cc(Cl)cnc1Oc1cccc(F)c1)c1ccc(C(=O)O)cc1` [Compound B]: the tumor growth kinetics entry in test [1] is “less than that of the vehicle group and anti-PD1 when dosed alone”; in test [2] (during the period of dosing, single agents (Compound B 15 mg/kg BID; anti-CTLA4), relative to vehicle treated mice, FIG. 24), “decreased relative to the vehicle treated mice”; in test [3], “less than that of the vehicle group”; in test [5] (15 mg/kg BID p.o.) it was “not notably different”; in test [5] (15 mg/kg QD p.o.) it was “not notably different”. The mice still alive entry was “none” in test [2] (47 days after tumor inoculation, 10 mice per group) and 1 out of 10 in test [5] (setting [6]). For the same compound, in test [4] (FIG. 28a), the “regulatory T cells (CD45, CD4, FoxP3, CD25 positive) in tumor” value is reported as “significant decrease”. In addition, the “percentage of dendritic cells (CD45, CD11c positive) in tumor” value in test [4] (FIG. 28b) is on record as “increased percentage”. Also, the “percentage of activated T cells (CD45, CD3, CD8; CD25 expression) in tumor” value in test [4] (FIG. 28c) is reported as “did not”. Moreover, the mice tumor free in test [5] (setting [6]) is recorded as 1 out of 10.
